“Also recorded” adds a separate entry of the source.
Tested on: B. infantis OpuA transporter
Experiment: Osmostress protection growth assay, B. infantis opuA operon expressed in B. subtilis strain CAB2
Type: cell-based, Bacillus infantis
Conditions: for Osmostress protection (growth yield OD578): B. subtilis CAB2, SMM with 1.2 M NaCl, 1 mM osmostress protectant, 18 h, 37°C; for Substrate of / import via the B. infantis OpuA transporter: inferred from osmostress protection of B. subtilis CAB2, 1.2 M NaCl, 1 mM
Experimental: Bacterial strains were propagated in Luria–Bertani (LB) liquid media at 37°C or plated on LB agar plates. The B. infantis strain NRRL B-14911 was grown in MOPS-buffered basal medium [50 mM MOPS (pH 7.5), 50 mM MgSO4, 10 mM KCl, 10 mM CaCl2, 190 mM NH4Cl, 0.33 mM K2HPO4, 0.1 mM FeSO4] supplemented with 0.5% glucose (wt/vol) as a carbon source, 0.4% casamino acids (wt/vol), 5 ml l^-1 vitamin solution A (7.8 mg l^-1 biotin, 15.6 mg l^-1 nicotinic acid, and 15.6 mg l^-1 lipoic acid; pH adjusted to 7.5), and 5 ml l^-1 vitamin solution B (15.6 mg l^-1 pantothenic acid, 15.6 mg l^-1 pyridoxine-HCl, 15.6 mg l^-1 thiamine, 15.6 mg l^-1 p-aminobenzoic acid, and 0.32 mg l^-1 cobalamin) ([Gonzalez et al., 1997]). In main cultures used for osmostress protection assays, casamino acids were left out from the growth medium. The osmolarity of growth media was adjusted by the addition of NaCl from a 5 M NaCl stock solution. If desired, osmostress protectants were added to the medium of B. infantis NRRL B-14911 cultures at a final concentration of 1 mM. For growth experiments, liquid cultures of B. infantis NRRL B-14911 were grown in 100-ml Erlenmeyer flasks containing 20-ml of medium in a water bath set to 37°C with vigorous shaking (set to 220 rpm). Pre-cultures of strains were propagated to mid-exponential growth phase in basal medium (with 0.4% casamino acids) and were then used to inoculate fresh basal medium (without casamino acids) to an optical density at 578 nm (OD578) of 0.1. Liquid cultures of B. subtilis strains were grown at 37°C in Spizizen’s minimal medium (SMM) ([Harwood and Archibald, 1990]) with 0.5% glucose as carbon source and a solution of trace elements ([Harwood and Cutting, 1990]). L-Tryptophan (20 mg l^-1) and L-phenylalanine (18 mg l^-1) were added to SMM-derived growth media to satisfy the auxotrophic needs of the B. subtilis strain JH642 (trpC2 pheA1) ([Smith et al., 2014]) and its derivatives (Supplementary Table S1). Cultures (20-ml in 100-ml Erlenmeyer flasks) of B. subtilis strains were inoculated from exponentially growing pre-cultures in SMM to an OD578 of 0.1 and were incubated in a shaking water bath (set to 220 rpm) at 37°C. If needed, the osmolarity of the growth medium was increased by the addition of NaCl (from 5 M stock solutions prepared in H2O). Compatible solutes were filter sterilized and added to the growth medium of B. subtilis strains from 100 mM stock solutions to a final concentration of 1 mM unless otherwise explicitly stated in the text.
For the heterologous expression of the B. infantis NRRL B-14911 opuA operon (opuAA-opuAB-opuAC) in B. subtilis, a 3826-bp DNA fragment including the coding region of the opuA operon and the adjacent opuAR regulatory gene was generated by PCR using primers CA3-opuARA fwd and CA3-opuARA rev (Supplementary Table S2). […] Plasmid pX and its recombinant derivatives allow the stable insertion of genes into the B. subtilis chromosome as a single copy into the non-essential amyE locus via a double homologous recombination event via amyE sequences present on both the plasmid and the chromosome ([Kim et al., 1996]). Insertion of plasmid pX, or its recombinant derivatives, into the B. subtilis chromosome at the amyE gene can be selected for on agar plates containing the antibiotic chloramphenicol (final concentration: 5 μg ml^-1) and the subsequently scoring of the AmyE negative phenotype of the strains on LB plates containing 1% starch ([Harwood and Cutting, 1990]). Linearized plasmid DNA of pCA-opuARA was used to transform the B. subtilis chassis strain TMB118 [Δ(opuA::tet)3 Δ(opuC::spc)3 Δ(opuD::neo)2 Δ(opuB::erm)3] ([Teichmann et al., 2017]) in which only the proline-specific osmostress OpuE transporter ([von Blohn et al., 1997]) is present. The resulting strain was CAB2 (Supplementary Table S1). B. subtilis mutants carrying chromosomal deletions of the yvaV and opcR genes were constructed using long-flanking region PCR ([Kuwayama et al., 2002]).

SMILES	Osmostress protection (growth yield OD578)	Substrate of / import via the B. infantis OpuA transporter
CN(C)CC(=O)O [DMG, dimethlyglycine]	at a reduced level	–
C[S+](C)CCC(=O)[O-] [DMSP, dimethylsulfoniopropionate]	protected	good substrate
C[N+](C)(C)CCO [choline]	–	not imported; also recorded: not a substrate
C[N+](C)(C)CC(=O)[O-] [glycine betaine]	protected	major substrates
C[N+](C)(C)CCC(=O)[O-] [homobetaine]	protected	–
C[N+]1(C)CCC[C@H]1C(=O)[O-] [proline betaine]	protected	major substrates

Reference: article PMC6207618, “The GbsR Family of Transcriptional Regulators: Functional Characterization of the OpuAR Repressor” (Frontiers in Microbiology, 2018)
